PMC5913971, “A Novel Piperazine-Based Drug Lead for Cryptosporidiosis from the Medicines for Malaria Venture Open-Access Malaria Box” (Antimicrobial Agents and Chemotherapy, 2018)

Test system: C. parvum Iowa isolate
Test: Immunofluorescence assay for C. parvum growth inhibition in HCT-8 cells
Type: cell-based, Cryptosporidium parvum
Conditions: Cryptosporidium parvum, HCT-8; Table S1, confirmed screening hits; read-out: C. parvum EC50 (95% CI)
Procedure: Inhibition of C. parvum growth was measured as described previously ([20]). Oocysts were excysted by treatment with 10 mM hydrochloric acid (10 min at 37°C), followed by exposure to 2 mM sodium taurocholate (Sigma-Aldrich) in PBS for 10 min at 16°C. Excysted oocysts were then added to >95% confluent HCT-8 cell monolayers in 384-well plates at a concentration of 5,500 Iowa isolate oocysts per well. For C. parvum field isolates, the inoculum required to yield an infection level similar to that produced by 5,500 Iowa isolate oocysts per well was determined and was used for subsequent assays of parasite inhibition. Compounds were added just before or 3 h after infection, and assay plates were incubated for 48 h postinfection at 37°C under 5% CO2. Wells were then washed three times with PBS containing 111 mM D-galactose, fixed with 4% paraformaldehyde in PBS for 15 min at room temperature, permeabilized with 0.25% Triton X-100 for 10 min at 37°C, washed three times with PBS with 0.1% Tween 20, and blocked with 4% bovine serum albumin (BSA) in PBS for 2 h at 37°C or 4°C overnight. Parasitophorous vacuoles were stained with 1.33 μg/ml of fluorescein-labeled Vicia villosa lectin (Vector Laboratories) diluted in 1% BSA in PBS with 0.1% Tween 20 for 1 h at 37°C, followed by the addition of Hoechst 33258 (AnaSpec) at a final concentration of 0.09 mM diluted in water for another 15 min at 37°C. Wells were then washed five times with PBS containing 0.1% Tween 20. A Nikon Eclipse TE2000 epifluorescence microscope with an automated stage was programmed using NIS-Elements Advanced Research software (Nikon, USA) to focus on the center of each well and take a 3-by-3 composite image using an EXi Blue fluorescence microscopy camera (QImaging, Canada) with a 20× objective (numerical aperture, 0.45). Nucleus and parasite images were exported separately as .tif files and were analyzed using macros developed on the ImageJ platform (National Institutes of Health) ([20]). The only modification from the published macro used to count parasites was that the lower size threshold for parasites was decreased from 16.5 to 4 pixels (1 pixel = 0.65 μm). Graphs were plotted, and half-maximal effective concentration (EC50) and 90% effective concentration (EC90) values were calculated using GraphPad Prism software, version 6.01. For every C. parvum field isolate experiment, a dose-response experiment against the C. parvum Iowa isolate was performed simultaneously as a reference.

Structure (SMILES)	EC50 [µM]
O=C(Nc1ccc(Cl)c(Cl)c1)Nc1ccc(Cl)c(Cl)c1 [MMV665852, Clc1ccc(NC(=O)Nc2ccc(Cl)c(Cl)c2)cc1Cl]	3.4
Cc1cc(=O)oc2c1ccc1oc(C(=O)c3ccccc3)c(C)c12 [MMV006753, CC1=CC(=O)Oc2c1ccc3oc(C(=O)c4ccccc4)c(C)c23]	0.25

Same assay, conditions: Cryptosporidium parvum, HCT-8; Table S3, SAR of MMV665917; read-out: C. parvum EC50 (95% CI)

Structure (SMILES)	EC50 [µM]
CC(C)c1ccc(NC(=O)N2CCN(c3ccc4nncn4n3)CC2)cc1 [Compound D-36, O=C(N1CCN(CC1)c1ccc2n(n1)cnn2)Nc1ccc(cc1)C(C)C]	> 25
NS(=O)(=O)c1ccc(C(=O)N2CCN(c3ccc4nncn4n3)CC2)cc1 [Compound D-45, O=C(c1ccc(cc1)S(=O)(=O)N)N1CCN(CC1)c1ccc2n(n1)cnn2]	> 25
O=C(Nc1cc(Cl)ccc1Cl)N1CCN(c2ccc3nncn3n2)CC1 [Compound D-32, Clc1ccc(c(c1)NC(=O)N1CCN(CC1)c1ccc2n(n1)cnn2)Cl]	~24.8
c1ccc(N2CCN(c3ccc4nncn4n3)CC2)cc1 [Compound D-9, c1ccc(cc1)N1CCN(CC1)c1ccc2n(n1)cnn2]	> 25
O=C(Cc1noc2ccccc12)N1CCN(c2ccc3nncn3n2)CC1 [Compound D-49, O=C(N1CCN(CC1)c1ccc2n(n1)cnn2)Cc1noc2c1cccc2]	> 25
O=C(c1ccc(Cl)cc1)N1CCN(c2ccc3nncn3n2)CC1 [Compound D-46, Clc1ccc(cc1)C(=O)N1CCN(CC1)c1ccc2n(n1)cnn2]	> 25
O=C(Nc1ccc(F)c(Cl)c1)N1CCN(c2ccc3nncn3n2)CC1 [Compound D-38, O=C(N1CCN(CC1)c1ccc2n(n1)cnn2)Nc1ccc(c(c1)Cl)F]	12
CN(C)S(=O)(=O)c1ccc(C(=O)N2CCN(c3ccc4nncn4n3)CC2)cc1 [Compound D-44, O=C(c1ccc(cc1)S(=O)(=O)N(C)C)N1CCN(CC1)c1ccc2n(n1)cnn2]	7.1
Cc1nnc2ccc(N3CCN(C(=O)NCc4ccccc4)CC3)nn12 [Compound D-21, O=C(N1CCN(CC1)c1ccc2n(n1)c(C)nn2)NCc1ccccc1]	> 25
O=S(=O)(c1ccc(Cl)cc1)N1CCN(c2ccc3nncn3n2)CC1 [Compound D-23, Clc1ccc(cc1)S(=O)(=O)N1CCN(CC1)c1ccc2n(n1)cnn2]	> 25
O=C(c1ccc(S(=O)(=O)N2CCCC2)cc1)N1CCN(c2ccc3nncn3n2)CC1 [Compound D-48, O=C(c1ccc(cc1)S(=O)(=O)N1CCCC1)N1CCN(CC1)c1ccc2n(n1)cnn2]	> 25
O=C(COc1ccc(Cl)cc1Cl)N1CCN(c2ccc3nncn3n2)CC1 [Compound D-50, Clc1ccc(c(c1)Cl)OCC(=O)N1CCN(CC1)c1ccc2n(n1)cnn2]	16
O=C(Nc1ccc(Cl)c(Cl)c1)N1CCN(c2nc3ccccc3[nH]2)CC1 [Compound D-80, O=C(N1CCN(C2=NC3=C(C=CC=C3)N2)CC1)NC4=CC=C(Cl)C(Cl)=C4]	17
O=S(=O)(c1ccc(Oc2ccccc2)cc1)N1CCN(c2ccc3nncn3n2)CC1 [Compound D-79, O=S(N1CCN(C2=NN3C(C=C2)=NN=C3)CC1)(C4=CC=C(OC5=CC=CC=C5)C=C4)=O]	12
O=C(Nc1ccc(Cl)c(Cl)c1)N1CCN(c2ccccc2)CC1 [Compound D-74, O=C(Nc1ccc(Cl)c(Cl)c1)N2CCN(CC2)c3ccccc3]	20
CC(=O)N1CCN(c2ccc3nnc(C(F)(F)F)n3n2)CC1 [Compound D-12, CC(=O)N1CCN(CC1)c1ccc2n(n1)c(nn2)C(F)(F)F]	> 25
O=C(Nc1ccc(Cl)c(Cl)c1)N1CCN(CCn2cccn2)CC1 [Compound D-81, O=C(N1CCN(CCN2N=CC=C2)CC1)NC3=CC=C(Cl)C(Cl)=C3]	> 25
O=C(c1cc(Cl)ccc1Cl)N1CCN(c2ccc3nncn3n2)CC1 [Compound D-47, Clc1ccc(c(c1)C(=O)N1CCN(CC1)c1ccc2n(n1)cnn2)Cl]	> 25
O=C(Cc1ccccc1Cl)N1CCN(c2ccc3nncn3n2)CC1 [Compound D-42, O=C(N1CCN(CC1)c1ccc2n(n1)cnn2)Cc1ccccc1Cl]	> 25

Same assay, conditions: Table S3, SAR of MMV665917; read-out: C. parvum EC50 (95% CI)

Structure (SMILES)	EC50 [µM]
O=C(Nc1ccc(Cl)cc1)N1CCN(c2ccc3nncn3n2)CC1 [Compound D-78, O=C(N1CCN(C2=NN3C(C=C2)=NN=C3)CC1)NC5=CC=C(Cl)C=C5]	> 25
